This passage reports IC50 results from US20240109917A1 (ACTELION PHARMACEUTICALS LTD, priority 2020, published 2024).

Each structure is given as a SMILES string.

VEGFR2, unphosphorylated, sequence (P35968 20-1356): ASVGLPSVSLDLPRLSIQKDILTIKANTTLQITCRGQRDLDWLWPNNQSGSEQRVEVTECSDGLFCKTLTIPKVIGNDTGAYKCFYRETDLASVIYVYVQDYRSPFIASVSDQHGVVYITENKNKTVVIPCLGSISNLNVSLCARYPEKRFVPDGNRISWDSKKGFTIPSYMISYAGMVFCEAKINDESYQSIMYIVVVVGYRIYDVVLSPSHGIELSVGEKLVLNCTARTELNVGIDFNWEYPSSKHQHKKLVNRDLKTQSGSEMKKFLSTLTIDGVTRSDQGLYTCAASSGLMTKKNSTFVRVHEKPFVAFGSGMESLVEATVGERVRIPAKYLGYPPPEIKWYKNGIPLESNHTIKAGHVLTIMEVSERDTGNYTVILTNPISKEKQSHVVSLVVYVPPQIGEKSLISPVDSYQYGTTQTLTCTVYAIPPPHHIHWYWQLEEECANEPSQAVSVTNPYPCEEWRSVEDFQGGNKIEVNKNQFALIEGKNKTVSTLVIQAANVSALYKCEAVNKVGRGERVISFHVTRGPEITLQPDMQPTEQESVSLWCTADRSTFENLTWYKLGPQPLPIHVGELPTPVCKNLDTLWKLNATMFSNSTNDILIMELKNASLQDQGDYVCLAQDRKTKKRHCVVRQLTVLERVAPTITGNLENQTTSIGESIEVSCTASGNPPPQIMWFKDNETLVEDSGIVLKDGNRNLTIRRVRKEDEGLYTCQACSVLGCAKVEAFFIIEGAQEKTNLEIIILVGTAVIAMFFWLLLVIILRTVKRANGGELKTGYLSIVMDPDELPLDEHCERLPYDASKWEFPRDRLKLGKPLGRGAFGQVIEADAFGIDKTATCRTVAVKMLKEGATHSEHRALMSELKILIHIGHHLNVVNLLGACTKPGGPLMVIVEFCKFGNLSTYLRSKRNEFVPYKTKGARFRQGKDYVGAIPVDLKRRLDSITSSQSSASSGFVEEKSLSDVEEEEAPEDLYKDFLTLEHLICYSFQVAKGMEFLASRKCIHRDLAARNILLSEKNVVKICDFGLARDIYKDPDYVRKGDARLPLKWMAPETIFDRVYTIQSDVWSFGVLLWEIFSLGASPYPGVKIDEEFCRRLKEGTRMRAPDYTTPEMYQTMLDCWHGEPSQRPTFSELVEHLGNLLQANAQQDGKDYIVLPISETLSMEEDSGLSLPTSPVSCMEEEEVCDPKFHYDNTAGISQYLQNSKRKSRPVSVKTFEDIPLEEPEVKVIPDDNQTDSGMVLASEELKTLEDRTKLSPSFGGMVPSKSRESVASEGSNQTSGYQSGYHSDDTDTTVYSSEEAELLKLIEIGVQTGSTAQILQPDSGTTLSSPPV

This test addresses VEGFR2, unphosphorylated (Homo sapiens (Human), UniProt P35968). The experiment in a line: VEGFR ADP GLO Assay. Format: biochemical.
The molecule `COCCn1cc(-c2cn3ncc(C(=O)Nc4cc(NC(=O)CCN5CCCC5(C)C)cnc4C)c3s2)cn1` [Example 41, N-(5-(3-(2,2-dimethylpyrrolidin-1-yl)propanamido)-2-methylpyridin-3-yl)-2-(1-(2-methoxyethyl)-1H-pyrazol-4-yl)pyrazolo[5,1-b]thiazole-7-carboxamide] showed a 50% inhibitory concentration (IC50) greater than 7.5 µM. Next, `COCCn1cc(-c2cn3ncc(C(=O)Nc4cc(NC(=O)CN5CCC5C(C)C)cnc4C)c3s2)cn1` (centres unmarked) [Example 467, N-(5-(2-(2-isopropylazetidin-1-yl)acetamido)-2-methylpyridin-3-yl)-2-(1-(2-methoxyethyl)-1H-pyrazol-4-yl)pyrazolo[5,1-b]thiazole-7-carboxamide]: greater than 7.5 µM. In turn, `Cc1ncc(NC(=O)CN2CC(C)(C)C2)cc1NC(=O)c1cnn2cc(-c3c(C)nn(C4COC4)c3C)sc12` [Example 425, 2-(3,5-dimethyl-1-(oxetan-3-yl)-1H-pyrazol-4-yl)-N-(5-(2-(3,3-dimethylazetidin-1-yl)acetamido)-2-methylpyridin-3-yl)pyrazolo[5,1-b]thiazole-7-carboxamide] returned an IC50 greater than 7.5 µM. Next, `Cc1ncc(NC(=O)CN2CCCC2(C)C)cc1NC(=O)c1cnn2cc(-c3cccnc3OCCF)sc12` [Example 448, N-(5-(2-(2,2-dimethylpyrrolidin-1-yl)acetamido)-2-methylpyridin-3-yl)-2-(2-(2-fluoroethoxy)pyridin-3-yl)pyrazolo[5,1-b]thiazole-7-carboxamide]: greater than 7.5 µM; `Cc1ncc(NC(=O)CN2CCCCCC2)cc1NC(=O)c1cnn2cc(-c3cnn4c3OCCC4)sc12` [Example 420, N-(5-(2-(azepan-1-yl)acetamido)-2-methylpyridin-3-yl)-2-(6,7-dihydro-5H-pyrazolo[5,1-b][1,3]oxazin-3-yl)pyrazolo[5,1-b]thiazole-7-carboxamide]: greater than 7.5 µM. `Cc1ncc(NC(=O)CN2CC(C)(C)C2)cc1NC(=O)c1cnn2cc(-c3cnn(C(F)F)c3)sc12` [Example 428, 2-(1-(difluoromethyl)-1H-pyrazol-4-yl)-N-(5-(2-(3,3-dimethylazetidin-1-yl)acetamido)-2-methylpyridin-3-yl)pyrazolo[5,1-b]thiazole-7-carboxamide] gave an IC50 greater than 7.5 µM. Next, `COC1CN(CC(=O)Nc2cnc(C)c(NC(=O)c3cnn4cc(-c5cn(C)nc5C)sc34)c2)C1` [Example 441, 2-(1,3-Dimethyl-1H-pyrazol-4-yl)-N-(5-(2-(3-methoxyazetidin-1-yl)acetamido)-2-methylpyridin-3-yl)pyrazolo[5,1-b]thiazole-7-carboxamide]: greater than 7.5 µM. As for `Cc1ncc(NC(=O)CN2CC3(COC3)C2)cc1NC(=O)c1cnn2cc(-c3cnn4c3OCCC4)sc12` [Example 411, N-(5-(2-(2-oxa-6-azaspiro[3.3]heptan-6-yl)acetamido)-2-methylpyridin-3-yl)-2-(6,7-dihydro-5H-pyrazolo[5,1-b][1,3]oxazin-3-yl)pyrazolo[5,1-b]thiazole-7-carboxamide], the IC50 is greater than 7.5 µM. The figure for `Cc1ncc(NC(=O)CN2CCC[C@@H]2C)cc1NC(=O)c1cnn2cc(-c3cnn4c3COCC4)sc12` [Example 473, (S)-2-(6,7-dihydro-4H-pyrazolo[5,1-c][1,4]oxazin-3-yl)-N-(2-methyl-5-(2-(2-methylpyrrolidin-1-yl)acetamido)pyridin-3-yl)pyrazolo[5,1-b]thiazole-7-carboxamide] is greater than 7.5 µM. `Cc1ncc(NC(=O)CN2CC3(CCCCO3)C2)cc1NC(=O)c1cnn2cc(-c3cnn4c3OCCC4)sc12` [Example 423, N-(5-(2-(5-oxa-2-azaspiro[3.5]nonan-2-yl)acetamido)-2-methylpyridin-3-yl)-2-(6,7-dihydro-5H-pyrazolo[5,1-b][1,3]oxazin-3-yl)pyrazolo[5,1-b]thiazole-7-carboxamide] registered an IC50 greater than 7.5 µM.

For the molecule `Cc1ncc(C(=O)NCCN2CCCC2(C)C)cc1NC(=O)c1cnn2cc(-c3cnn4c3COCC4)sc12` [Example 450, 2-(6,7-dihydro-4H-pyrazolo[5,1-c][1,4]oxazin-3-yl)-N-(5-((2-(2,2-dimethylpyrrolidin-1-yl)ethyl)carbamoyl)-2-methylpyridin-3-yl)pyrazolo[5,1-b]thiazole-7-carboxamide], the IC50 was greater than 7.5 µM. The figure for `Cc1ncc(NC(=O)CN2CCCCC2)cc1NC(=O)c1cnn2cc(-c3cnn4c3OCCC4)sc12` [Example 419, 2-(6,7-dihydro-5H-pyrazolo[5,1-b][1,3]oxazin-3-yl)-N-(2-methyl-5-(2-(piperidin-1-yl)acetamido)pyridin-3-yl)pyrazolo[5,1-b]thiazole-7-carboxamide] is greater than 7.5 µM; for `Cc1ncc(NC(=O)CN2CCC23CCC3)cc1NC(=O)c1cnn2cc(-c3cnn4c3OCCC4)sc12` [Example 408, N-(5-(2-(1-azaspiro[3.3]heptan-1-yl)acetamido)-2-methylpyridin-3-yl)-2-(6,7-dihydro-5H-pyrazolo[5,1-b][1,3]oxazin-3-yl)pyrazolo[5,1-b]thiazole-7-carboxamide] it is greater than 7.5 µM; for `Cc1ncc(NC(=O)CN2CCC23CCC3)cc1NC(=O)c1cnn2cc(-c3cnn4c3COCC4)sc12` [Example 475, N-(5-(2-(1-azaspiro[3.3]heptan-1-yl)acetamido)-2-methylpyridin-3-yl)-2-(6,7-dihydro-4H-pyrazolo[5,1-c][1,4]oxazin-3-yl)pyrazolo[5,1-b]thiazole-7-carboxamide] it is greater than 7.5 µM. The figure for `Cc1ncc(C(=O)NCC2CCCN2C)cc1NC(=O)c1cnn2cc(-c3cnn4c3OCCC4)sc12` (centres unmarked) [Example 470, 2-(6,7-dihydro-5H-pyrazolo[5,1-b][1,3]oxazin-3-yl)-N-(2-methyl-5-(((1-methylpyrrolidin-2-yl)methyl)carbamoyl)pyridin-3-yl)pyrazolo[5,1-b]thiazole-7-carboxamide] is greater than 7.5 µM; for `Cc1ncc(NC(=O)CNC2CCC2)cc1NC(=O)c1cnn2cc(-c3cnn4c3CCC4)sc12` [Example 471, N-(5-(2-(cyclobutylamino)acetamido)-2-methylpyridin-3-yl)-2-(5,6-dihydro-4H-pyrrolo[1,2-b]pyrazol-3-yl)pyrazolo[5,1-b]thiazole-7-carboxamide] it is greater than 7.5 µM; for `Cc1ncc(NC(=O)CN2CCC[C@H]2C)cc1NC(=O)c1cnn2cc(-c3nn(C)nc3C)sc12` [Example 443, (R)-2-(2,5-dimethyl-2H-1,2,3-triazol-4-yl)-N-(2-methyl-5-(2-(2-methylpyrrolidin-1-yl)acetamido)pyridin-3-yl)pyrazolo[5,1-b]thiazole-7-carboxamide] it is greater than 7.5 µM. In turn, `Cc1ncc(NC(=O)CN2CC(C)(C)C2)cc1NC(=O)c1cnn2cc(-c3cnn4c3COCC4)sc12` [Example 476, 2-(6,7-dihydro-4H-pyrazolo[5,1-c][1,4]oxazin-3-yl)-N-(5-(2-(3,3-dimethylazetidin-1-yl)acetamido)-2-methylpyridin-3-yl)pyrazolo[5,1-b]thiazole-7-carboxamide] showed an IC50 greater than 7.5 µM. With `Cc1ncc(C(=O)NCCN2CCCC23CCC3)cc1NC(=O)c1cnn2cc(-c3cnn4c3CCC4)sc12` [Example 461, N-(5-((2-(5-azaspiro[3.4]octan-5-yl)ethyl)carbamoyl)-2-methylpyridin-3-yl)-2-(5,6-dihydro-4H-pyrrolo[1,2-b]pyrazol-3-yl)pyrazolo[5,1-b]thiazole-7-carboxamide], half-maximal inhibition (IC50) required 3.35 µM. The figure for `Cc1ncc(C(=O)NCCN2CCCC2(C)C)cc1NC(=O)c1cnn2cc(-c3cnn4c3OCCC4)sc12` [Example 460, 2-(6,7-dihydro-5H-pyrazolo[5,1-b][1,3]oxazin-3-yl)-N-(5-((2-(2,2-dimethylpyrrolidin-1-yl)ethyl)carbamoyl)-2-methylpyridin-3-yl)pyrazolo[5,1-b]thiazole-7-carboxamide] is greater than 7.5 µM. Next, `Cc1ncc(NC(=O)CN2CC(C)(C)C2)cc1NC(=O)c1cnn2cc(-c3cnn4c3OCCC4)sc12` [Example 39, 2-(6,7-dihydro-5H-pyrazolo[5,1-b][1,3]oxazin-3-yl)-N-(5-(2-(3,3-dimethylazetidin-1-yl)acetamido)-2-methylpyridin-3-yl)pyrazolo[5,1-b]thiazole-7-carboxamide]: 2.04 µM. Next, `Cc1ncc(NC(=O)CNCC2CC2)cc1NC(=O)c1cnn2cc(-c3cnn4c3OCCC4)sc12` [Example 453, N-(5-(2-((cyclopropylmethyl)amino)acetamido)-2-methylpyridin-3-yl)-2-(6,7-dihydro-5H-pyrazolo[5,1-b][1,3]oxazin-3-yl)pyrazolo[5,1-b]thiazole-7-carboxamide]: greater than 7.5 µM; `Cc1ncc(NC(=O)CNC2CCCC2)cc1NC(=O)c1cnn2cc(-c3cnn4c3CCC4)sc12` [Example 422, N-(5-(2-(cyclopentylamino)acetamido)-2-methylpyridin-3-yl)-2-(5,6-dihydro-4H-pyrrolo[1,2-b]pyrazol-3-yl)pyrazolo[5,1-b]thiazole-7-carboxamide]: greater than 7.5 µM; `Cc1ncc(NC(=O)CN2CC(C)(C)C2)cc1NC(=O)c1cnn2cc(-c3cnn(C)c3C)sc12` [Example 434, 2-(1,5-Dimethyl-1H-pyrazol-4-yl)-N-(5-(2-(3,3-dimethylazetidin-1-yl)acetamido)-2-methylpyridin-3-yl)pyrazolo[5,1-b]thiazole-7-carboxamide]: 5.22 µM. As for `Cc1ncc(NC(=O)CN2CCCC2(C)C)cc1NC(=O)c1cnn2cc(-c3cnn(C(C)(C)CO)c3)sc12` [Example 457, N-(5-(2-(2,2-dimethylpyrrolidin-1-yl)acetamido)-2-methylpyridin-3-yl)-2-(1-(1-hydroxy-2-methylpropan-2-yl)-1H-pyrazol-4-yl)pyrazolo[5,1-b]thiazole-7-carboxamide], the IC50 was greater than 7.5 µM. Next, `Cc1ncc(C(=O)NCCN2CC(C)(C)C2)cc1NC(=O)c1cnn2cc(-c3cnn4c3CCC4)sc12` [Example 482, 2-(5,6-dihydro-4H-pyrrolo[1,2-b]pyrazol-3-yl)-N-(5-((2-(3,3-dimethylazetidin-1-yl)ethyl)carbamoyl)-2-methylpyridin-3-yl)pyrazolo[5,1-b]thiazole-7-carboxamide]: greater than 7.5 µM.
